Source: EP3183252B1, “OXALATE SALT OF RUXOLITINIB” (ratiopharm GmbH, priority 2014, dated 2016)
Counter-ions that a name gives are not always drawn.

Legend:
Assay type in all cases: physicochemical
[1] = pH-dependencies of solubility at 37°C; conditions: for solubility at 0.5 h / solubility at 1 h / solubility at 24 h / pH dependency of solubility (in words) / solubility: 37°C; for solubility at 1 h / solubility at 24 h: thermodynamic from solid; for pH dependency of solubility (in words): pH 4.5 and 6.8
Excerpt: The intestinal tract obeys different pH ranges, which vary from pH 1 to 2 of the empty stomach, pH 3-5 for stomach filled with chyme, to pH 5-7.5 of the colon.

[2] = Storage stability: chemical purity by HPLC/UV; conditions: for Chemical purity ([area-%] at λ=230 nm): 40°C/75% rh
Method: (§1) Samples were stored in closed and open containers at 25°C/60% rh and at 40°C/75% rh and analyzed after 4, 8 and 12 weeks.
The results of determination of the chemical purity during storage at 40°C/75% rh are summarized. Both salts remained chemically stable when stored under these conditions. Therefore, the analysis of samples, which were stored at 25°C/60% rh, was omitted.

[3] = Dynamic vapor sorption experiment (hygroscopicity)
Method: Vapour sorption experiments were performed in the instrument SPSx-1µ (Projekt Messtechnik, Ulm, Germany) at temperature of 25°C and the humidity cycles as shown below.
A dynamic vapor sorption experiment was performed with Ruxolitinib oxalate. At a constant temperature of 25°C, the substance was exposed to two cycles of varying relative humidity (rh) (40% → 0% →95% (75% r.h. kept constant for 48h) → 0% →40%). Figure 3a presents the relative weight change as a function of time and relative humidity and in […] changes are illustrated as a function of humidity.

[4] = Storage stability: solid state by XRPD analysis
Method: The sample was analyzed on a D8 Advance X-ray powder diffractometer (Bruker-AXS, Karlsruhe, Germany). The sample holder was rotated in a plane parallel to its surface at 20 rpm during the measurement. The raw data were analyzed with the program EVA (Bruker-AXS, Germany). The samples were layered onto a silicon specimen holder
as §1
The solid-state stability was investigated by XRPD analysis. The results of evaluation are summarized. Ruxolitinib phosphate and Ruxolitinib oxalate remained unchanged throughout the observation period.

[5] = 20mM sodium acetate pH 4.5, 0.5 h
[6] = aqueous buffer, 20mM sodium acetate pH 4.5, 1 h
[7] = aqueous buffer, 20mM sodium acetate pH 4.5, 24 h
[8] = aqueous buffer, 50mM KH2PO4 pH 6.8, 1 h
[9] = aqueous buffer, 50mM KH2PO4 pH 6.8, 24 h
[10] = pH 1.2, simulated gastric fluid, 0.1M HCl pH1.2, 1 h
[11] = pH 1.2, simulated gastric fluid, 0.1M HCl pH1.2, 24 h

N#CC[C@H](C1CCCC1)n1cc(-c2ncnc3[nH]ccc23)cn1 (stereo in doubt) [Ruxolitinib maleate]
solubility at 0.5 h [1, 5]: 2.8 mg/mL
solubility at 0.5 h ([1]; 50mM KH2PO4 pH 6.8, 0.5 h): 2.9 mg/mL
solubility at 1 h [1, 6]: 3.2 mg/mL
solubility at 24 h [1, 7]: 2.4 mg/mL
solubility at 1 h [1, 8]: 2.9 mg/mL
solubility at 24 h [1, 9]: 2.5 mg/mL
solubility at 1 h [1, 10]: 12 mg/mL
solubility at 24 h [1, 11]: 12.2 mg/mL
solubility at 0.5 h ([1]; pH 1.2, 0.1M HCl pH1.2, 0.5 h): 12.5 mg/mL
pH dependency of solubility (in words) [1]: distinct pH dependency

N#CC[C@H](C1CCCC1)n1cc(-c2ncnc3[nH]ccc23)cn1 (stereo in doubt) [Ruxolitinib sulfate]
solubility ([1]; 20mM sodium acetate pH 4.5, 0.5 h, 30 min): 10.4 mg/mL
solubility ([1]; 20mM sodium acetate pH 4.5, 1 h, 60 min): 10.6 mg/mL
solubility ([1]; 20mM sodium acetate pH 4.5, 24 h, 1440 min): 9.5 mg/mL
solubility ([1]; 50mM KH2PO4 pH 6.8, 0.5 h, 30 min): 9.6 mg/mL
solubility ([1]; 50mM KH2PO4 pH 6.8, 1 h, 60 min): 9.8 mg/mL
solubility ([1]; 50mM KH2PO4 pH 6.8, 24 h, 1440 min): 8.3 mg/mL
solubility ([1]; 0.1M HCl pH1.2, 0.5 h, 30 min): 18.5 mg/mL
solubility ([1]; 0.1M HCl pH1.2, 1 h, 60 min): 18.5 mg/mL
solubility ([1]; 0.1M HCl pH1.2, 24 h, 1440 min): 16.7 mg/mL
pH dependency of solubility (in words) [1]: less pH dependency

N#CC[C@H](C1CCCC1)n1cc(-c2ncnc3[nH]ccc23)cn1 [Ruxolitinib oxalate]
stable upon storage for ([2]; 25°C and 60% relative humidity (RH)): at least 12 weeks
stable upon storage for ([2]; 40°C/75% RH): at least 12 weeks
Chemical purity ([area-%] at λ=230 nm) ([2]; closed, 4 weeks): 100,00% area-%
Chemical purity ([area-%] at λ=230 nm) ([2]; closed, 8 weeks): 99,95% area-%
Chemical purity ([area-%] at λ=230 nm) ([2]; closed, 12 weeks): 99,90% area-%
Chemical purity ([area-%] at λ=230 nm) ([2]; closed, t = 00 (= initial)): 99,89 area-%
Chemical purity ([area-%] at λ=230 nm) ([2]; open, 4 weeks): 100,00% area-%
Chemical purity ([area-%] at λ=230 nm) ([2]; open, 8 weeks): 99,91% area-%
Chemical purity ([area-%] at λ=230 nm) ([2]; open, 12 weeks): 99,85% area-%
Chemical purity ([area-%] at λ=230 nm) ([2]; open, t = 00 (= initial)): 99,89 area-%
solid state by XRPD analysis after the DVS experiment, compared to prior [3]: identical
solubility overall (in words) [1]: good solubility
solubility at 0.5 h [1, 5]: 24.1 mg/mL
solubility at 0.5 h ([1]; 50mM KH2PO4 pH 6.8, 0.5 h): 21.5 mg/mL
solubility at 1 h [1, 6]: 27.7 mg/mL
solubility at 24 h [1, 7]: 29.9 mg/mL
solubility at 1 h [1, 8]: 23.5 mg/mL
solubility at 24 h [1, 9]: 23.9 mg/mL
solubility at 1 h [1, 10]: 56.3 mg/mL
solubility at 24 h [1, 11]: 57.4 mg/mL
solubility at 0.5 h ([1]; pH 1.2, 0.1M HCl pH1.2, 0.5 h): 57.8 mg/mL

N#CC[C@H](C1CCCC1)n1cc(-c2ncnc3[nH]ccc23)cn1 [Ruxolitinib phosphate]
Chemical purity ([area-%] at λ=230 nm) ([2]; closed, 4 weeks): 99,04% area-%
Chemical purity ([area-%] at λ=230 nm) ([2]; closed, 8 weeks): 99,20% area-%
Chemical purity ([area-%] at λ=230 nm) ([2]; closed, 12 weeks): 99,03% area-%
Chemical purity ([area-%] at λ=230 nm) ([2]; closed, t = 00 (= initial)): 99,05 area-%
Chemical purity ([area-%] at λ=230 nm) ([2]; open, 4 weeks): 99,13% area-%
Chemical purity ([area-%] at λ=230 nm) ([2]; open, 8 weeks): 99,28% area-%
Chemical purity ([area-%] at λ=230 nm) ([2]; open, 12 weeks): 99,10% area-%
Chemical purity ([area-%] at λ=230 nm) ([2]; open, t = 00 (= initial)): 99,05 area-%
Evaluation of XRPD analysis ([4]; 25°C/60% rh, closed, 4 weeks): unchanged
Evaluation of XRPD analysis ([4]; 25°C/60% rh, closed, 8 weeks): unchanged
Evaluation of XRPD analysis ([4]; 25°C/60% rh, closed, 12 weeks): unchanged
Evaluation of XRPD analysis ([4]; 25°C/60% rh, open, 4 weeks): unchanged
Evaluation of XRPD analysis ([4]; 25°C/60% rh, open, 8 weeks): unchanged
Evaluation of XRPD analysis ([4]; 25°C/60% rh, open, 12 weeks): unchanged
Evaluation of XRPD analysis ([4]; 40°C/75% rh, closed, 4 weeks): unchanged
Evaluation of XRPD analysis ([4]; 40°C/75% rh, closed, 8 weeks): unchanged
Evaluation of XRPD analysis ([4]; 40°C/75% rh, closed, 12 weeks): unchanged
Evaluation of XRPD analysis ([4]; 40°C/75% rh, open, 4 weeks): unchanged
Evaluation of XRPD analysis ([4]; 40°C/75% rh, open, 8 weeks): unchanged
Evaluation of XRPD analysis ([4]; 40°C/75% rh, open, 12 weeks): unchanged
solubility at 1 h ([1]; 20mM sodium acetate buffer, aqueous buffer, 20mM sodium acetate pH 4.5, 1 h): 6 mg/mL
solubility at 24 h ([1]; 20mM sodium acetate buffer, aqueous buffer, 20mM sodium acetate pH 4.5, 24 h): 6.8 mg/mL
solubility at 1 h ([1]; 50mM KH2PO4 buffer, aqueous buffer, 50mM KH2PO4 pH 6.8, 1 h): 4.7 mg/mL
solubility at 24 h ([1]; 50mM KH2PO4 buffer, aqueous buffer, 50mM KH2PO4 pH 6.8, 24 h): 5.7 mg/mL
solubility (in words) ([1]; higher pH points than pH 1.2): considerably less solubility
solubility (in words) ([1]; pH 1.2): good solubility
solubility at 1 h [1, 10]: 43.2 mg/mL
solubility at 24 h [1, 11]: 44 mg/mL
